Earlier results, collected in patent US20050175694A1, “Long acting compositions comprising zidovudine and lamivudine” (priority 2002, published 2005).

Conditions: in vivo

Row | Compound | oral bioavailability | serum half-life
1 | Nc1ccn([C@@H]2CS[C@H](CO)O2)c(=O)n1 [lamivudine] | 86% | –
2 | Cc1cn([C@H]2C[C@H](N=[N+]=[N-])[C@@H](CO)O2)c(=O)[nH]c1=O [zidovudine] | 60% | 1.1 h
